Results as given in patent US6787557B2 (priority 2000, dated 2004).
“And” between values parts separate entries of the source, which are not always exact repeats. Equal entries are not always repeated. Where two headings read alike, the source gives them in different places.

Experiments:
[1] = system: rice blast fungi; assay type: in vivo, Pyricularia oryzae
[2] = system: rice blast fungi; assay type: in vivo, Pyricularia oryzae; remark: listed apart in the source

Molecule | Protective value ([1]; 3 ppm) | Protective value ([1]; 10 ppm) | Protective value ([2]; 30 ppm) | Protective value ([2]; 100 ppm) | Protective value ([2]; 37.5 ppm) | Protective value ([2]; 75 ppm) | Protective value ([1]; in vivo) | Protective value ([2]; in vivo)
Cc1nc2c(F)cc(C(C)(C)C)cc2c(O)c1C [Compound 1, 2,3-dimethyl-6-t-butyl-8-fluoro-4-hydroxyquinoline] | 93 | 100 | – | – | – | – | – | –
2,3-dimethyl-6-t-butyl-8-fluoro-4-acetoxyacetylquinoline [Compound 11] | 94 | 100 | 88 | 99 | – | – | – | –
2,3-dimethyl-6-t-butyl-8-fluoro-4-valerylquinoline [Compound 5] | 84 | 99 | – | – | 82 | 95 | – | –
2,3-dimethyl-6-t-butyl-8-fluoro-4-n-butoxycarbonyl-quinoline [Compound 9] | – | – | – | – | – | – | 99 and 90 | 98 and 87
2,3-dimethyl-6-t-butyl-8-fluoro-4-butyrylquinoline [Compound 4] | – | – | – | – | 66 | 94 | – | –
2,3-dimethyl-6-t-butyl-8-fluoro-4-methoxyacetylquinoline [Compound 10] | 99 | 100 | 90 | 100 | – | – | – | –
2,3-dimethyl-6-t-butyl-8-fluoro-4-n-propoxycarbonyl-quinoline [Compound 8] | – | – | – | – | – | – | 100 and 92 | 98 and 84
